Assay results published in US20230348450A1, “CARBOXYLIC ACID-CONTAINING COMPOUNDS AS MODULATORS OF BIS-PHOSPHOGLYCERATE MUTASE FOR THE TREATMENT OF SICKLE CELL DISEASE” (Genzyme Corporation, priority 2020, published 2023).

Assays:
hBPGM = hBPGM (Homo sapiens (Human), UniProt P07738); assay: BPGM Synthase Assay; type: biochemical; conditions: Table 6 additional results; read-out: huBPGM: synthase Enzyme IC50
Procedure: Example B1. BPGM Synthase Assay
The following materials were used in this assay: deionized water; Bisphosphoglycerate mutase (BPGM; Standard Buffer: 50 mM Tris, 0.01% Tween 20, pH 7.4); BPGM Reaction Buffer (50 mM Tris, 0.01% Tween 20, 3.23 mM KH2PO4, pH 7.4); dithiothreitol (DTT; Stock solution: 100 mM in Standard Buffer); 384-Well Black Assay Plate (Corning, P/N 3575); DMSO; BPGM Stock Solution (500 nM in BPGM Standard Buffer); Glyceraldehyde 3-phosphate dehydrogenase (GAPDH; Stock Solution: 40 U/mL in 20 mM Tris-HCL Buffer with 20% Glycerol, 1 mM EDTA, 1 mM DTT); Glyceraldehyde 3-phosphate (GAP; Stock Solution: 20 mM in BPGM Standard Buffer); 3-PG Stock Solution (500 μM in BPGM Standard Buffer); Nicotinamide adenine dinucleotide (NAD; Stock Solution: 50 mM in BPGM Standard Buffer); Koningic Acid (1 mM Stock in DMSO); Resazurin Stock Solution (10 mM in DMSO); Diaphorase Stock Solution (40 U/mL in BPGM Standard Buffer); DTT Reaction Buffer (1 mM DTT in BPGM Reaction Buffer); Enzyme Solution (5 nM BPGM, 0.4 U/mL GAPDH in DTT Reaction Buffer); GAPDH Solution (0.4 U/mL GAPDH in DTT Reaction Buffer); Substrate Solution (2 mM NAD, 20 μM 3PG, 800 μM GAP in DTT Reaction Buffer); and Resazurin Solution (5 U/mL Diaphorase, 500 μM Resazurin in BPGM Standard Buffer).
To the assay plate was added Enzyme Solution (20 uL) to columns 2-22 and 24 of the assay plate. To columns 1 and 23 was added GAPDH Solution (20 uL). A separate compound plate was prepared at the desired concentrations and all wells were normalized with 5% DMSO. The compound plate was incubated for 30 minutes at RT. Next, the substrate solution (20 μL) was dispensed to all reaction wells and the plate was incubated for 60 minutes at RT. Koningic acid (1 μL) was added and the plate was incubated for 10 minutes at RT. During this time period, the NADH fluorescence was read at ex: 360/em: 460. Next, Resazurin Solution (10 μL) was added to all reaction wells and the plate was incubated for 30 minutes at RT. The resorufin fluorescence was then read at ex:544/em:590.

[1] = target: human Bisphosphoglycerate mutase (hBPGM) (Homo sapiens (Human), UniProt P07738); assay: BPGM Phosphatase Assay; type: biochemical; conditions: Table 6 additional results; read-out: huBPGM: phosphatase Enzyme EC50
Procedure: Solutions of the test compounds were then added to the plate and the DMSO content was normalized across the plate. The plate was incubated at RT for 15 min. Next, the substrate 2,3-BPG (5 μL) was added to all the wells, and the plate was sealed and incubated for 24 hr at RT. After incubation, BIOMOL green dye (40 μL) was added to all the wells, the plate was shaken to mix, and the plate was incubated at RT for 20-30 min.

Chain of hBPGM (P07738 whole entry, looked up): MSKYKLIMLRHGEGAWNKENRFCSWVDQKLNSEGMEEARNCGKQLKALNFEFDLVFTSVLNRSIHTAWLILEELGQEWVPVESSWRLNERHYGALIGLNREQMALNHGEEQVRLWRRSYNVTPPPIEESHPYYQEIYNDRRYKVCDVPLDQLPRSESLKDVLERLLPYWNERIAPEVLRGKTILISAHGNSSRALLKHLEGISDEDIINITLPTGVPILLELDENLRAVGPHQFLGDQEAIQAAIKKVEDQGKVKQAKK
Chain of human Bisphosphoglycerate mutase (hBPGM) (P07738 whole entry): as the sequence (P07738 whole entry, looked up) above

| SMILES | IC50 (hBPGM) [µM] | EC50 [1] [µM] |
| --- | --- | --- |
| Cc1nc(Cc2ccn(C)n2)sc1-c1csc(-c2cc(O)c(C(=O)O)cc2F)n1 [Example 160] | 0.065 | 0.13 |
| Cc1nc(CNC(=O)C(C)(C)N(C)C)sc1-c1csc(-c2cc(O)c(C(=O)O)cc2F)n1 [Example 123] | 0.53 | 9.7 |
| Cc1nc(Cc2cccnc2)sc1-c1cccc(-c2ccc(C(=O)O)c(O)c2)n1 [Example 237] | 0.14 | 0.17 |
| Cc1nc(CNC(=O)C(C)(C)C)sc1-c1cccc(-c2ccc(C(=O)O)c(O)c2)c1 [Example 81] | 0.45 | 1.1 |
| COC(=O)NCc1nc(C)c(-c2csc(-c3ccc(C(=O)O)c(O)c3)n2)s1 [Example 213] | 0.13 | 0.14 |
| COC(=O)NCc1nc(C)c(-c2csc(-c3ccc(C(=O)NS(=O)(=O)c4ccc(OCC(=O)O)cc4)cc3)n2)s1 [Example 66] | 0.061 | 0.11 |
| COC(=O)NCc1nc(C)c(-c2csc(-c3ccc(C(=O)O)c(O)c3)c2)s1 [Example 166] | 0.25 | 0.07 |
| Cc1nc(COc2ccccn2)sc1-c1csc(-c2cc(O)c(C(=O)O)cc2F)n1 [Example 163] | 0.17 | 0.06 |
| Cc1nc(CNC(=O)c2cccnn2)sc1-c1cccc(-c2ccc(C(=O)O)c(O)c2)n1 [Example 148] | 0.25 | 0.28 |
| Cc1nc(COc2ncccn2)sc1-c1cccc(-c2cc(O)c(C(=O)O)cc2F)n1 [Example 129] | 0.04 | 0.04 |
| Cc1nc(COc2ncccn2)sc1-c1cccc(-c2csc(C(=O)O)c2)n1 [Example 79] | 0.55 | 0.11 |
| Cc1nc(CNCC(=O)N(C)C)sc1-c1csc(-c2cc(O)c(C(=O)O)cc2F)n1 [Example 169] | 0.48 | 0.11 |
| Cc1nc(CNC(=O)c2ccccn2)sc1-c1csc(-c2cc(O)c(C(=O)O)cc2F)n1 [Example 200] | 0.073 | 0.27 |
| Cc1ccnc(NCc2nc(C)c(-c3cccc(-c4ccc(C(=O)O)c(O)c4)c3)s2)c1 [Example 68] | 1.4 | 0.06 |
| Cc1nc(C(C)NC(=O)C(C)(C)C)sc1-c1csc(-c2cc(O)c(C(=O)O)cc2F)n1 (centres unmarked) [Example 141] | 0.13 | 0.07 |
| CCOC(=O)NCc1nc(C)c(-c2csc(-c3cc(O)c(C(=O)O)cc3F)n2)s1 [Example 227] | 0.076 | 0.09 |
| Cc1nc(CO)sc1-c1cccc(-c2cc(C(=O)O)cs2)n1 [Example 75] | 4.6 | > 25 |
| Cc1nc(COc2ncccn2)sc1-c1cccc(-c2ccc(C(=O)O)c(F)c2)n1 [Example 96] | 1.3 | 0.01 |
| Cc1nc(Cc2cccnc2)sc1-c1csc(-c2ccc(C(=O)O)c(O)c2)n1 [Example 250] | 0.25 | 0.29 |
| Cc1nc(CNC(=O)c2cccnc2)sc1-c1csc(-c2cc(O)c(C(=O)O)cc2F)n1 [Example 199] | 0.067 | 0.32 |
| Cc1nc(COc2cccc(C#N)c2)sc1-c1cccc(-c2ccc(C(=O)O)c(O)c2)c1 [Example 108] | 3.2 | 0.5 |
| Cc1nc(COc2ncccn2)sc1-c1cccc(-c2ccc(C(=O)O)cc2F)n1 [Example 83] | 0.36 | 1.4 |
| Cc1nc(COc2ncccn2)sc1-c1cccc(-c2ccc(C(=O)O)c(O)c2)c1 [Example 142] | 0.19 | 0.13 |

| SMILES | IC50 (hBPGM) [µM] | EC50 [1] [µM] |
| --- | --- | --- |
| Cc1nc(CNC(=O)C(N)=O)sc1-c1csc(-c2cc(O)c(C(=O)O)cc2F)n1 [Example 202] | 0.12 | 0.15 |
| Cc1nc(CNC(=O)CN(C)C)sc1-c1csc(-c2cc(O)c(C(=O)O)cc2F)n1 [Example 120] | 0.5 | > 25 |
| COC(=O)NCc1nc(C)c(-c2csc(-c3c(F)cc(C(=O)O)cc3F)n2)s1 [Example 225] | 0.83 | 7.3 |
| Cc1nc(Cc2cccnc2)sc1-c1cccc(-c2ccc(C(=O)O)cc2)c1 [Example 277] | 0.86 | 1.1 |
| Cc1nc(CNC(=O)N2CCCC2)sc1-c1csc(-c2cc(O)c(C(=O)O)cc2F)n1 [Example 198] | 0.05 | 0.19 |
| Cc1nc(CNC(=O)C2CC2)sc1-c1csc(-c2cc(O)c(C(=O)O)cc2F)n1 [Example 232] | 0.06 | 0.093 |
| Cc1nc(COC(N)=O)sc1-c1cccc(-c2ccc(C(=O)O)c(O)c2)c1 [Example 252] | 1 | 1 |
| Cc1nc(COCC(N)=O)sc1-c1csc(-c2cc(O)c(C(=O)O)cc2F)n1 [Example 156] | 0.35 | 1.5 |
| Cc1nc(Cn2cccc(C#N)c2=O)sc1-c1cccc(-c2ccc(C(=O)O)c(O)c2)c1 [Example 100] | 0.56 | 0.42 |
| COCCNCc1nc(C)c(-c2csc(-c3cc(O)c(C(=O)O)cc3F)n2)s1 [Example 175] | 0.52 | 0.32 |
| Cc1nc(CNC(=O)C2CCN(C)C2)sc1-c1csc(-c2cc(O)c(C(=O)O)cc2F)n1 (centres unmarked) [Example 127] | 0.49 | 0.42 |
| Cc1nc(COc2ccnn2C)sc1-c1csc(-c2cc(O)c(C(=O)O)cc2F)n1 [Example 218] | 0.13 | 0.17 |
| COC(=O)NCc1nc(C)c(-c2csc(-c3cc(O)c(C(=O)O)cc3C)n2)s1 [Example 130] | 0.07 | 0.04 |
| Cc1nc(CNC(=O)c2ccon2)sc1-c1csc(-c2cc(O)c(C(=O)O)cc2F)n1 [Example 152] | 0.067 | 0.04 |
| Cc1nc(CNC(=O)C2CC2)sc1-c1csc(-c2ccc(C(=O)O)c(O)c2)c1 [Example 97] | 0.1 | 0.16 |
| Cc1nc(CNc2ncccn2)sc1-c1cccc(-c2ccc(C(=O)O)cc2)n1 [Example 63] | 0.63 | > 25 |
| Cc1nc(CNC(=O)c2ncccn2)sc1-c1csc(-c2cc(O)c(C(=O)O)cc2F)n1 [Example 192] | 0.049 | 0.12 |
| Cc1nc(Cn2cccn2)sc1-c1csc(-c2cc(O)c(C(=O)O)cc2F)n1 [Example 248] | 0.11 | 0.11 |
| Cc1nc(CNC(=O)C2CCCC2)sc1-c1csc(-c2cc(O)c(C(=O)O)cc2F)n1 [Example 222] | 0.11 | 0.13 |
| Cc1nc(C)c(-c2csc(-c3cc(O)c(C(=O)O)cn3)n2)s1 [Example 284] | 2.8 | 2.9 |
| COC(=O)NCc1nc(C)c(-c2csc(-c3ccc(C(=O)O)cc3)n2)s1 [Example 239] | 0.73 | > 25 |
| Cc1nc(CNC(=O)C(C)CN(C)C)sc1-c1csc(-c2cc(O)c(C(=O)O)cc2F)n1 (centres unmarked) [Example 117] | 0.17 | 8.7 |
| Cc1nc(CN)sc1-c1csc(-c2cc(O)c(C(=O)O)cc2F)n1 [Example 243] | 0.83 | 0.99 |
